Data: the supplement of paper PMC10307832

How the values were obtained:
Test in all cases: relative viability (nuclei count vs DMSO), 5 days (fraction); higher = more cells survive
Cediranib + OSI-027 = compound: COc1cc2c(Oc3ccc4[nH]c(C)cc4c3F)ncnc2cc1OCCCN1CCCC1 [Cediranib] + COc1cccc2cc(-c3nc([C@H]4CC[C@H](C(=O)O)CC4)n4ncnc(N)c34)[nH]c12 [OSI-027] (partner 0.5 µM)
Summary of the method: (§1)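 Values are medians from duplicate plates. Each reflects relative viability, defined as the nuclei count of treated wells over that of vehicle wells. Lung cancer cell lines in 1536-well plates were pin-tool dosed one day after seeding with one drug alone or with a fixed anchor-drug dose plus five library-drug doses (not always all listed) in √10 steps, then fixed, stained and imaged at 4× after 5 days.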

Halofuginone + Dasatinib = compound: O=C(C[C@H]1NCCC[C@@H]1O)Cn1cnc2cc(Br)c(Cl)cc2c1=O (racemic) [Halofuginone] + Cc1nc(Nc2ncc(C(=O)Nc3c(C)cccc3Cl)s2)cc(N2CCN(CCO)CC2)n1 [Dasatinib] (partner 0.075 µM)
Summary of the method: as §1

Halofuginone + AZD7762 = compound: O=C(C[C@H]1NCCC[C@@H]1O)Cn1cnc2cc(Br)c(Cl)cc2c1=O (racemic) [Halofuginone] + NC(=O)Nc1cc(-c2cccc(F)c2)sc1C(=O)N[C@H]1CCCNC1 [AZD7762] (partner 0.2 µM)
Summary of the method: as §1

[1] = compound: O=C(C[C@H]1NCCC[C@@H]1O)Cn1cnc2cc(Br)c(Cl)cc2c1=O (racemic) [Halofuginone] + CC(=O)Nc1cccc(-n2c(=O)n(C3CC3)c(=O)c3c(Nc4ccc(I)cc4F)n(C)c(=O)c(C)c32)c1 [Trametinib] (partner 0.02 µM)
Summary of the method: as §1

Cell Line	relative viability (Cediranib + OSI-027; first compound 0.04 µM)	relative viability (Cediranib + OSI-027; first compound 0.1265 µM)	relative viability (Cediranib + OSI-027; first compound 0.4 µM)	relative viability (Cediranib + OSI-027; first compound 1.265 µM)	relative viability (Cediranib + OSI-027; first compound 4 µM)	relative viability (Halofuginone + Dasatinib; first compound 0.001 µM)	relative viability (Halofuginone + Dasatinib; first compound 0.003162 µM)	relative viability (Halofuginone + Dasatinib; first compound 0.01 µM)	relative viability (Halofuginone + Dasatinib; first compound 0.03162 µM)	relative viability (Halofuginone + Dasatinib; first compound 0.1 µM)	relative viability (Halofuginone + AZD7762; first compound 0.001 µM)	relative viability (Halofuginone + AZD7762; first compound 0.003162 µM)	relative viability (Halofuginone + AZD7762; first compound 0.01 µM)	relative viability (Halofuginone + AZD7762; first compound 0.03162 µM)	relative viability (Halofuginone + AZD7762; first compound 0.1 µM)	relative viability ([1]; first compound 0.001 µM)	relative viability ([1]; first compound 0.003162 µM)	relative viability ([1]; first compound 0.01 µM)	relative viability ([1]; first compound 0.03162 µM)	relative viability ([1]; first compound 0.1 µM)
NCI-H2087	0.558	0.742	0.526	0.425	0.763	0.834	1.16	0.9	0.808	0.522	1.42	1.48	1.33	1.48	1.01	0.219	0.213	0.222	0.197	0.156
NCI-H2126	0.649	0.577	0.668	0.597	0.537	0.661	0.663	0.635	0.562	0.405	1.02	0.976	1.01	0.889	0.995	0.525	0.544	0.585	0.546	0.513
NCI-H2170	0.619	0.529	0.691	0.611	0.786	0.623	0.639	0.575	0.444	0.473	0.929	0.935	0.875	0.886	0.866	0.856	0.852	0.954	0.948	0.868
NCI-H2342	0.615	0.671	0.659	0.549	0.508	0.302	0.326	0.309	0.326	0.378	0.458	0.536	0.507	0.487	0.588	0.816	0.832	0.972	0.85	0.823
NCI-H2347	0.376	0.448	0.371	0.407	0.425	0.299	0.308	0.334	0.281	0.194	0.673	0.745	0.681	0.822	0.538	0.256	0.284	0.289	0.258	0.253
NCI-H2405	0.648	0.606	0.617	0.52	0.622	0.21	0.246	0.241	0.209	0.223	0.79	0.881	0.674	0.678	0.541	0.696	0.69	0.678	0.599	0.502
NCI-H3122	1.09		0.897	0.888	0.975	0.852	0.658	0.735	0.806	0.66	0.937	1.09	0.985	0.94	0.922	0.192	0.241	0.258	0.219	0.25
PC-3 [JPC-3]	0.777	0.824	0.73	0.688	0.627	0.933	0.966	0.955	1.02	1.03	0.881	0.933	0.669	0.783	0.499	0.722	0.741	0.664	0.648	0.538
PC-14	0.993	0.894	0.735	0.61	0.724	0.259	0.305	0.189	0.0636	0.03	0.435	0.409	0.381	0.366	0.198	0.809	0.618	0.702	0.154	0.0395
RERF-LC-KJ	0.572	0.511	0.547	0.492	0.523	0.875	0.91	0.764	0.862	0.633	1.1	1.15	1.05	0.96	0.956	0.924	0.984	0.837	0.824	0.591
SW 900	0.712	0.642	0.504	0.59	0.69	1	0.677	0.555	0.616	0.163	0.677	0.564		0.621	0.46	0.871	0.941		1.03	0.534
